From patent publication US20250376445A1, “COMPOUNDS AND METHODS FOR YAP/TEAD MODULATION AND INDICATIONS THEREFOR” (OPNA BIO SA, priority 2023, published 2025)

Test system: TEAD-dependent transcription
Test: TEAD-dependent transcription cell-based reporter assay (MSTO-211H+12XGTIIC luciferase)
Parameters: species or system human
Conditions: Homo sapiens; MSTO-211H+12XGTIIC reporter cells, 24 hours compound incubation, luminescence normalized to viability; read-out: MSTO-211H GMean IC50 (uM) Cell Assay Reporter Cell Variant: TEAD
Text: The human mesothelioma cell line MSTO-211H was stably transfected with a pGL4.21 plasmid containing a synthetic promoter with 12 copies of the GTIIC TEAD response element that drives the expression of a luciferase reporter gene^1 using Lipofectamine transfection reagent (Thermo Fisher). Transfected cells were selected using puromycin and single cell clones expressing this construct (referred to as MSTO-211H+12XGTIIC) were generated by limiting dilution. MSTO-211H cells was characterized by genetic alterations in key components of the Hippo pathway^2, resulting in up-regulation of YAP/TEAD-mediated transcription. […] To evaluate TEAD inhibitors, the MSTO-211H+12XGTIIC cell line was seeded in a 96-well plate in 50 μL of culture media at 1×10^4 cells per well and incubated at 37° C. overnight. Serial dilutions of compounds (in total volume of 50 μL of culture media) were added to the cells and incubated at 37° C. for 24 hours. Each plate included cells treated with DMSO as high controls and cells treated with 20 μM of the reference compound K-975 (a known TEAD inhibitor)^3 as low controls. Cell viability was assayed by the addition of 25 μL of CellTiter-Fluor reagent (Promega) followed by a 30-minute incubation at 37° C. and quantification of the fluorescence signal (Ex400/Em505). Subsequently, luciferase expression was assayed by the addition of 25 μL of ONE-Glo reagent (Promega) followed by a 10-minute incubation at room temperature and quantification of the luminescence signal. The luminescence signal was normalized to the fluorescence signal to correct for any loss in cell viability over the 24-hour compound incubation period. The percentage of inhibition of normalized luminescence signal, indicative of compound-mediated inhibition of TEAD-dependent transcription, at individual compound concentrations relative to high and low controls was calculated. The data were analyzed by using nonlinear regression to generate IC50 values for individual compounds.

Row | Compound | IC50 [µM]
1 | O=C(c1c[nH]c(C(F)(F)F)n1)N1CCc2ccc(-c3ccc(C(F)(F)F)cc3)cc2C1 [O-0188, (2-(trifluoromethyl)-1H-imidazol-4-yl)(7-(4-(trifluoromethyl)phenyl)-3,4-dihydroisoquinolin-2(1H)-yl)methanone] | 10 to 100
2 | CS(=O)(=O)c1nc(C(=O)N2CCc3ccc(-c4ccc(C(F)(F)F)cc4)cc3C2)c[nH]1 [O-0189, (2-(methylsulfonyl)-1H-imidazol-4-yl)(7-(4-(trifluoromethyl)phenyl)-3,4-dihydroisoquinolin-2(1H)-yl)methanone] | 0.001 to 10
3 | CS(=O)(=O)c1nc(C(=O)N2CCc3cc(-c4ccc(C(F)(F)F)cc4)ccc3C2)c[nH]1 [O-0190, (2-(methylsulfonyl)-1H-imidazol-4-yl)(6-(4-(trifluoromethyl)phenyl)-3,4-dihydroisoquinolin-2(1H)-yl)methanone] | 0.001 to 10
4 | O=C(c1c[nH]c(C(F)(F)F)n1)N1CCc2cc(-c3ccc(C(F)(F)F)cc3)ccc2C1 [O-0191, (2-(trifluoromethyl)-1H-imidazol-4-yl)(6-(4-(trifluoromethyl)phenyl)-3,4-dihydroisoquinolin-2(1H)-yl)methanone] | 0.001 to 10
5 | O=C(c1c[nH]c(C(F)(F)F)n1)N1CCc2c(cccc2-c2ccc(C(F)(F)F)cc2)C1 [O-0192, (2-(trifluoromethyl)-1H-imidazol-4-yl)(5-(4-(trifluoromethyl)phenyl)-3,4-dihydroisoquinolin-2(1H)-yl)methanone] | > 100
6 | CS(=O)(=O)c1nc(C(=O)N2CCc3c(cccc3-c3ccc(C(F)(F)F)cc3)C2)c[nH]1 [O-0193, (2-(methylsulfonyl)-1H-imidazol-4-yl)(5-(4-(trifluoromethyl)phenyl)-3,4-dihydroisoquinolin-2(1H)-yl)methanone] | 10 to 100
7 | C[C@H](N)C(=O)N1CCc2c(cccc2-c2ccc(C(F)(F)F)cc2)C1 [O-0194, (S)-2-amino-1-(5-(4-(trifluoromethyl)phenyl)-3,4-dihydroisoquinolin-2(1H)-yl)propan-1-one] | 0.001 to 10
8 | C[C@H](NC(=O)OC(C)(C)C)C(=O)N1CCc2c(cccc2-c2ccc(C(F)(F)F)cc2)C1 [O-0195, tert-butyl (S)-(1-oxo-1-(5-(4-(trifluoromethyl)phenyl)-3,4-dihydroisoquinolin-2(1H)-yl)propan-2-yl)carbamate] | > 100
9 | C[C@@H](NC(=O)OC(C)(C)C)C(=O)N1CCc2c(cccc2-c2ccc(C(F)(F)F)cc2)C1 [O-0196, tert-butyl (R)-(1-oxo-1-(5-(4-(trifluoromethyl)phenyl)-3,4-dihydroisoquinolin-2(1H)-yl)propan-2-yl)carbamate] | > 100
